System: BLaER1 monocytes
Assay: Ectopic doxycycline-inducible expression of virulence factors, IFN induction by q-RT-PCR
Type: cell-based, human
Details: doxycycline-inducible lentiviral expression in BLaER1 monocytes, doxycycline 24 h; gene expression by q-RT-PCR
Description: BLaER1, U937 and THP-1 cells were cultured in RPMI Medium 1640 supplemented with L-glutamine, sodium pyruvate, 100 U/ml penicillin-streptomycin (Thermo Fisher) and 10% (v/v) FCS (Omega Scientific). HEK293T, U2OS and HCT116 cells were cultivated in DMEM Medium (Thermo Fisher) containing the same supplements. 1.4 million BLaER1 cells per well of a 6-well plate were trans-differentiated into monocytes for 5-6 days in medium containing 10 ng/ml of hrIL-3, 10 ng/ml hr-CSF-1 (M-CSF) (both PeproTech) and 100 nM β-Estradiol (Sigma-Aldrich) as previously described. 1.4 million THP-1 and U937 cells per well of a 6-well plate were differentiated overnight with 100 ng/ml PMA (Sigma-Aldrich). STING-deficient and corresponding control THP1 and U937 cells were a gift from Dan Stetson (University of Washington). BLaER1 cells were a gift from Thomas Graf (CRG, Barcelona, Spain) and Veit Hornung (LMU Munich, Germany). U2OS cells were a gift from Robert Tjian and Xavier Darzacq (UC Berkeley). THP1 cells were from ATCC. U937 cells were from the UC Berkeley Cell Culture Facility. HCT116 cells were a gift from David Raulet (UC Berkeley). […]
Gene expression was quantified by quantitative PCR with reverse transcription (RT-qPCR). […] SYBRGreen dye (Thermo Fisher Scientific) was used for quantitative PCR assays and analyzed with a real-time PCR system (StepOnePlus; Applied Biosystems). […]

ICP0 D199A: predominantly nuclear variant of ICP0
IFN induction (IFN response): not impaired in IFN induction

ICP0: key virulence factor of Herpes Simplex Virus-1, SUMO-directed E3 ubiquitin ligase; Accession No. YP_009137074.1, SEQ ID NO: 2
IFN induction (IFN response): led to an IFN response

From patent US20240076666A1, “Immunomodulators Targeting MORC3 for Interferon Induction” (The Regents of the University of California, priority 2021, published 2024)
